In patent US20070142450A1, “Novel urea derivatives and their medical use” (priority 2004, published 2007):

System: not given
Assay: not given
Conditions: not given

SMILES	melting point
COc1ccc(Cl)cc1NC(=O)Nc1ccc([N+](=O)[O-])cc1O	225 to 226 °C
O=C(Nc1cccc(C(F)(F)F)c1)Nc1c(O)cccc1[N+](=O)[O-]	174 to 175 °C
Nc1cc(Cl)c(Cl)cc1NC(=O)Nc1cc(C(F)(F)F)ccc1Cl	207 to 209 °C
O=C(Nc1ccc(-c2ccccc2)cc1)Nc1cc(Cl)c(O)c(Cl)c1	249 to 251 °C
O=C(Nc1ccc(-c2ccccc2)cc1)Nc1cc(Cl)ccc1O	191 to 192 °C
Cc1cc(O)cc(NC(=O)Nc2cc(C(F)(F)F)ccc2Cl)c1	190 to 192 °C
Cc1cc(O)ccc1NC(=O)Nc1cc(C(F)(F)F)ccc1Cl	210 to 211 °C
COc1ccc(Cl)cc1NC(=O)Nc1cc(C(F)(F)F)ccc1Cl	172 to 176 °C

Further lines, results first:

melting point	SMILES
194 to 196 °C	O=C(Nc1cccc(C(F)(F)F)c1)Nc1ccc(O)c(Cl)c1
185 to 186 °C	Cc1cc(O)ccc1NC(=O)Nc1cccc(C(F)(F)F)c1
215 to 218 °C	O=C(Nc1cccc(C(F)(F)F)c1)Nc1cc(Cl)c(O)c(Cl)c1
213 to 221 °C	O=C(Nc1cc(Cl)c(O)c(Cl)c1)Nc1cc(C(F)(F)F)ccc1Cl
252 to 253 °C	O=C(Nc1cccc(-c2ccccc2)c1)Nc1cc(Cl)c(O)c(Cl)c1
188 to 190 °C	Cc1cc(O)cc(NC(=O)Nc2cccc(C(F)(F)F)c2)c1

System: male Wistar rats
Assay: Morris Water Maze (MWM), scopolamine-induced impairment of spatial learning and memory
Format: in vivo, rat
Conditions: 30 mg/kg i.p. 30 minutes prior to test start, with 0.1 mg/kg Scopolamine s.c., four trials per day, four days
Text: The Morris Water Maze (MWM) is the favored test in behavioral neuroscience for the study of hippocampal-dependent learning and memory (see Morris R G: Developments of a Water Maze procedure for studying spatial learning in the rat; J. Neurosci. Meth. 1984 11 47-60). It is a standardized behavioral task to test spatial navigation in rodents, and is a highly sensitive test to assess cognition in animals.
In the MWM performance animals have to remember the position of a submerged platform (10×10 cm) within a circular (Ø 150 cm) water tank using visual spatial cues. A number of eight (n=8) male Wistar rats were used for each group in each experiment. In four trials per day, for four consecutive acquisition days, they are released from different starting points close to the wall of the tank to find their way to the submerged platform. Spatial learning abilty is evaluated by latency to locate the platform.
This learning impairment was reversed by 30 mg/kg of Compound 1 of the invention (i.p. administration 30 minutes prior to test start).

SMILES	Reversal of scopolamine-induced learning impairment (latency to locate the platform)
O=C(Nc1cc(Cl)ccc1O)Nc1cc(C(F)(F)F)ccc1Cl [Compound 1, N-(3-Chloro-6-hydroxy-phenyl)-N′-(2-chloro-5-trifluoromethyl-phenyl)urea]	reversed

Same assay, conditions: s.c. administration 30 minutes prior to test start

SMILES	Effect on spatial reference memory as measured in MWM (latency to locate the platform)
CN1[C@@H]2C[C@@H](OC(=O)[C@H](CO)c3ccccc3)C[C@H]1[C@@H]1O[C@@H]12 [Scopolamine, reference compound]	significantly impairs
